Assay results: US12678446B2 (PFIZER INC., priority 2020, dated 2026)
Read-outs that look alike come from different tables or passages of the source.

Assays:
Hep-G2 cells = assay: cell toxicity CC50; type: cell-based; conditions: mean of at least two experiments, read-out: Cell Cytotoxicity CC50
[1] = test system: RSV (RSV A2 ECACC, 0709161v); assay: RSV plaque reduction assay; type: cell-based, respiratory syncytial virus; conditions: mean of at least two experiments unless noted (n = 1)
How it was run: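 Eight-point compound dilutions were premixed with RSV A2 (100 PFU/well) and applied to confluent Hep-G2 cells for 2 h, followed by a 2-day incubation at 37° C. under compound-containing 0.8% CMC overlay. EC50 comes from immunostained plaque counts relative to untreated virus wells, averaged over ≥2 runs.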

[2] = Hepatocyte stability, human; type: in vitro ADME; conditions: cryopreserved pooled hepatocytes; human hepatocytes 0.5×10^6 viable cells/mL, 3 μM compound, up to 60 min; read-out: Liver Hepatocyte Stability t½
Description: (§1) Compounds were subjected to the following assays to investigate liver microsomal stability and hepatocyte stability.
(§2) Hepatocyte Incubation: Experimental Procedure
(§3) Cryopreserved pooled hepatocytes were purchased from a reputable commercial supplier and stored in liquid nitrogen prior to use. Williams E media supplemented with 2 mM L-glutamine and 25 mM HEPES and test compound (final substrate concentration 3 μM; final DMSO concentration 0.25%) are pre-incubated at 37° C. prior to the addition of a suspension of cryopreserved hepatocytes (final cell density 0.5×10^6 viable cells/mL in Williams E media supplemented with 2 mM L-glutamine and 25 mM HEPES) to initiate the reaction. The final incubation volume is 500 μL. Two control compounds were included with each species, alongside appropriate vehicle control. The reactions are stopped by transferring 50 μL of incubate to 100 μL acetonitrile containing internal standard at the appropriate time points. Samples were removed at 6 time points (0, 5, 15, 30, 45 and 60 min) over the course of a 60 min experiment. The termination plates are centrifuged at 2500 rpm at 4° C. for 30 min to precipitate the protein. Following protein precipitation, the sample supernatants were combined in cassettes of up to 4 compounds and analysed using generic LC-MS/MS conditions. From a plot of ln peak area ratio (compound peak area/internal standard peak area) against time, the gradient of the line is determined. Subsequently, half-life (t½) and intrinsic clearance (CLint) were calculated.

[3] = Hepatocyte stability, rat; type: in vitro ADME; conditions: cryopreserved pooled hepatocytes; rat hepatocytes 0.5×10^6 viable cells/mL, 3 μM compound, up to 60 min; read-out: Liver Hepatocyte Stability t½
Description: as §1, §2, §3

[4] = Liver microsomal stability, dog; type: in vitro ADME; conditions: pooled liver microsomes, pH 7.4; dog liver microsomes 0.5 mg/mL, 1 μM compound, NADPH, up to 45 min; read-out: Liver Microsomal Stability t½
Description: as §1
(§4) Pooled liver microsomes were purchased from a reputable commercial supplier and stored at −80° C. prior to use. Microsomes (final protein concentration 0.5 mg/mL), 0.1 M phosphate buffer pH 7.4 and test compound (final substrate concentration 1 μM; final DMSO concentration 0.25%) were pre-incubated at 37° C. prior to the addition of NADPH (final concentration 1 mM) to initiate the reaction. The final incubation volume was 50 μL. A control incubation was included for each compound tested where 0.1 M phosphate buffer pH 7.4 was added instead of NADPH (minus NADPH). Two control compounds were included with each species. All incubations were performed singularly for each test compound. Each compound was incubated for 0, 5, 15, 30 and 45 min. The control (minus NADPH) was incubated for 45 min only. The reactions were stopped by transferring incubate into acetonitrile at the appropriate time points, in a 1:3 ratio. The termination plates are centrifuged at 3,000 rpm for 20 min at 4° C. to precipitate the protein. Following protein precipitation, the sample supernatants were combined in cassettes of up to 4 compounds, internal standard added, and samples analysed by LC-MS/MS. From a plot of ln peak area ratio (compound peak area/internal standard peak area) against time, the gradient of the line was determined. Subsequently, half-life (t1/2) and intrinsic clearance (CLint) were calculated.

cell toxicity CC50 = type: cell-based; conditions: human; Hep-G2 cells; mean of at least two experiments; read-out: Cell Cytotoxicity CC50
[5] = Rat pharmacokinetics in vivo (IV 1 mg/kg, PO 10 mg/kg); set-up: species or system Male rats [Sprague Dawley (SD)]; conditions: male SD rat
Description: The pharmacokinetics of compounds were studied in vivo in rats at doses of 1 mg/kg (IV) and 10 mg/kg (PO).
Male rats [Sprague Dawley (SD)] surgically prepared with a jugular vein cannula were treated with experimental compounds via intravenous administration (IV; n=3; 1 mg/kg) or oral administration (PO; n=3; 10 mg/kg). Compounds were formulated as a solution in 40:60 dimethylacetamide:saline (IV administration) and a solution of 10% DMSO, 10% cremaphor in water (80%) (PO administration). […] Serial blood samples were collected via the cannula at 0.02, 0.08, 0.25, 0.5, 1, 2, 4, 6, 8 and 24 h post IV dosing of compound, and at 0.08, 0.25, 0.5, 1, 2, 4, 6, 8 and 24 h post oral dosing of compound, and plasma was prepared by centrifugation and stored immediately at −80° C. Samples were subsequently thawed, prepared for analysis by protein precipitation with acetonitrile, and analysed by tandem LCMS using electrospray ionisation using a matrix-matched calibration curve. PK parameters were calculated from the resulting data.

[6] = Liver microsomal stability, human; type: in vitro ADME; conditions: pooled liver microsomes, pH 7.4; human liver microsomes 0.5 mg/mL, 1 μM compound, NADPH, up to 45 min; read-out: Liver Microsomal Stability t½
Description: as §1, §4

[7] = Hepatocyte stability, dog; type: in vitro ADME; conditions: cryopreserved pooled hepatocytes; dog hepatocytes 0.5×10^6 viable cells/mL, 3 μM compound, up to 60 min; read-out: Liver Hepatocyte Stability t½
Description: as §1, §2, §3

[8] = Liver microsomal stability, rat; type: in vitro ADME; conditions: pooled liver microsomes, pH 7.4; rat liver microsomes 0.5 mg/mL, 1 μM compound, NADPH, up to 45 min; read-out: Liver Microsomal Stability t½
Description: as §1, §4

[9] = RSV A2 in Hep-G2 cells, read-out: RSV A2 Plaque EC50

Molecule	CC50 (Hep-G2 cells) [nM]	EC50 [1, 9] [nM]	also measured
COCC1CCn2nc(-c3ccccc3F)c(C(=O)N[C@H]3N=C(c4ccccc4)c4cccc(F)c4NC3=O)c2O1 (single isomer, unassigned) [Example 191-2, (5S*)-N-[(3S)-9-fluoro-2-oxo-5-phenyl-1,3-dihydro-1,4-benzodiazepin-3-yl]-2-(2-fluorophenyl)-5-(methoxymethyl)-6,7-dihydro-5H-pyrazolo[5,1-b][1,3]oxazine-3-carboxamide]	> 25000		EC50 ([1]; read-out: RSV A2 Plaque EC50, RSV A2 in Hep-G2 cells): 280 nM
CCNc1ccc(-c2nn3c(c2C(=O)N[C@H]2N=C(c4ccccc4)c4cccc(F)c4NC2=O)OCCC3)c(F)n1 [Example 3, 2-[6-(Ethylamino)-2-fluoropyridin-3-yl]-N-[(3S)-9-fluoro-2-oxo-5-phenyl-1,3-dihydro-1,4-benzodiazepin-3-yl]-6,7-dihydro-5H-pyrazolo[5,1-b][1,3]oxazine-3-carboxamide]	> 25000	20	
C[C@@H]1CCn2nc(-c3ccccc3F)c(C(=O)N[C@H]3N=C(c4ccccc4)c4cccc(F)c4NC3=O)c2O1 [Example 25, (5R)-N-[(3S)-9-fluoro-2-oxo-5-phenyl-1,3-dihydro-1,4-benzodiazepin-3-yl]-2-(2-fluorophenyl)-5-methyl-6,7-dihydro-5H-pyrazolo[5,1-b][1,3]oxazine-3-carboxamide]			half-life at 3 μM [2]: 4.73 h; half-life at 3 μM [3]: 1.8 h; half-life at 1 μM [4]: > 2.33 h; CC50 (cell toxicity CC50): > 25000 nM; clearance ([5]; Sprague Dawley, plasma, IV 1 mg/kg): 4.7 mL/min/kg; half-life ([5]; Sprague Dawley, plasma, IV 1 mg/kg, read-out: IV t½ (converted)): 2.2 h; Vd ([5]; Sprague Dawley, plasma, IV 1 mg/kg, read-out: Vd): 0.6 L/kg; AUC(0-t) ([5]; Sprague Dawley, plasma, PO 10 mg/kg, read-out: PO AUClast): 14900 ng·h/mL; half-life ([5]; Sprague Dawley, plasma, PO 10 mg/kg, read-out: PO t½ (converted)): 3.4 h; Cmax ([5]; Sprague Dawley, plasma, IV 1 mg/kg, PO 10 mg/kg study, read-out: Cmax): 1880 ng/mL; concentration at 8 h ([5]; Sprague Dawley, plasma at 8 h, read-out: C 8 h): 812 ng/mL; F ([5]; PO 10 mg/kg vs IV 1 mg/kg): 40.3%; half-life at 1 μM [6]: 16.8 h; half-life at 3 μM [7]: > 3.1 h; half-life at 1 μM [8]: > 2.33 h; EC50 ([1]; human respiratory syncytial virus, HepG2, read-out: RSV A2 Plaque EC50, RSV A2 in Hep-G2 cells): 24 nM
O=C(N[C@H]1N=C(c2ccccc2)c2cccc(F)c2NC1=O)c1c(-c2ccccc2F)nn2c1OC(CO)CC2 (stereo partly drawn) [Example 123, N-[(3S)-9-Fluoro-2-oxo-5-phenyl-1,3-dihydro-1,4-benzodiazepin-3-yl]-2-(2-fluorophenyl)-5-(hydroxymethyl)-6,7-dihydro-5H-pyrazolo[5,1-b][1,3]oxazine-3-carboxamide]	> 25000	79	
(5R)-2-(2-Fluoro-6-methylpyridin-3-yl)-5-methyl-N-[(3S)-2-oxo-5-phenyl-1,3-dihydro-1,4-benzodiazepin-3-yl]-6,7-dihydro-5H-pyrazolo[5,1-b][3,1]oxazine-3-carboxamide [Example 72]	> 25000	100	
(5R)-2-[1- (Difluoromethyl)pyra- zol-4-yl]-N-[(3S)-9- fluoro-2-oxo-5- phenyl-1,3-dihydro- 1,4-benzodiazepin-3- yl]-5-methyl-6,7- dihydro-5H- pyrazolo[5,1- b][1,3]oxazine-3- carboxamide [Example 120]	> 25000	97	
(5R)-2-[2-Fluoro-4- (hydroxymethyl)phe- nyl]-N-[(3S)-9- fluoro-2-oxo-5- phenyl-1,3-dihydro- 1,4-benzodiazepin-3- yl]-5-methyl-6,7- dihydro-5H- pyrazolo[5,1- b][1,3]oxazine-3- carboxamide [Example 153]	> 25000	63	
(5R)-N-[(3S)-9- fluoro-2-oxo-5- phenyl-1,3-dihydro- 1,4-benzodiazepin-3- yl]-5-methyl-2-(1- propan-2-ylpyrazol- 4-yl)-6,7-dihydro- 5H-pyrazolo[5,1- b][1,3]oxazine-3- carobxamide [Example 112]	> 25000	50	
(5R)-N-[(3S)-9- fluoro-2-oxo-5- phenyl-1,3-dihydro- 1,4-benzodiazepin-3- yl]-5-methyl-2-[1- (oxan-4-yl)pyrazol- 4-yl]-6,7-dihydro- 5H-pyrazolo[5,1- b][1,3]oxazine-3- carboxamide [Example 111]	> 25000	64	
N-[(3S)-9-fluoro-2- oxo-5-phenyl-1,3- dihydro-1,4- benzodiazepin-3-yl]-2- (2-fluorophenyl)-6- (morpholin-4- ylmethyl)-6,7-dihydro- 5H-pyrazolo[5,1- b][1,3]oxazine-3- carboxamide [Example 173]	> 25000	91	
N-[(3S)-9-fluoro-2- oxo-5-phenyl-1,3- dihydro-1,4- benzodiazepin-3-yl]- 2-(2-fluorophenyl)- 6-(hydroxymethyl)- 6,7-dihydro-5H- pyrazolo[5,1- b][1,3]oxazine-3- carboxamide [Example 110]	> 25000	51	
N-[(3S)-9-fluoro-2- oxo-5-phenyl-1,3- dihydro-1,4- benzodiazepin-3-yl]- 2-(2-fluorophenyl)- 6-(methoxymethyl)- 6,7-dihydro-5H- pyrazolo[5,1- b][1,3]oxazine-3- carboxmaide [Example 113]	> 19400	53	
N-[(3S)-9-fluoro-2- oxo-5-phenyl-1,3- dihydro-1,4- benzodiazepin-3-yl]- 2-(2-fluorophenyl)- 6-(pyrrolidin-1- ylmethyl)-6,7- dihydro-5H- pyrazolo[5,1- b][1,3]oxazine-3- carboxamide [Example 182]	20100	78	
tert-butyl N-[3- [[(3S)-9-fluoro-2- oxo-5-phenyl-1,3- dihydro-1,4- benzodiazepin-3- yl]carbamoyl]-2-(2- fluorophenyl)-6,7- dihydro-5H- pyrazolo[5,1- b][1,3]oxazin-6-yl]- N-methylcarbamate [Example 107]	> 25000	93	
